Test results from patent publication US6943183B2 (Pfizer Inc, priority 2000, dated 2005).

Target: T1, SF9 affinity purified rat FPT (Rattus norvegicus, UniProt Q02293+Q04631)
T1 construct: made in house; host or cells: Sf9 insect cells
Experiment: PFT (FPT) inhibitory activity assay, radiolabeled farnesyl pyrophosphate and biotinyl peptide, streptavidin beads
Format: biochemical
Conditions: HEPES buffer pH 7.4, 30° C., 30 minutes; read-out: FTase IC50
Method in brief: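 Rat FPT expressed in SF9 cells was incubated 30 minutes at 30° C. with compound (in 10% DMSO), radiolabeled farnesyl pyrophosphate and biotinylated peptide. Buffer: HEPES pH 7.4, ZnCl2 20 μM, MgCl2 and DTT 5 mM each, 0.1% PEG 8000, 5 mM potassium phosphate (also run without phosphate). Product captured on streptavidin beads in magnesium acetate/H3PO4 stop buffer.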

SMILES	IC50
C#CCNC(=O)c1ccc(S(=O)(=O)Cc2c(O[C@H](Cn3ccnc3)c3ccccc3)ccc3c2CCCC3=O)cc1 [Compound 214, 4-{[(2-{[(1S)-2-(1H-Imidazol-1-yl)-1-phenylethyl]oxy}-5-oxo-5,6,7,8-tetrahydro-1-naphthalenyl)methyl]sulfonyl}-N-(2-propynyl)benzamide]	0.37 nM
C#CCNC(=O)c1cccc(S(=O)(=O)Cc2c(O[C@H](Cn3ccnc3)c3ccccc3)ccc3c2CCCC3=O)c1 [Compound 215, 3-{[(2-{[(1S)-2-(1H-Imidazol-1-yl)-1-phenylethyl]oxy}-5-oxo-5,6,7,8-tetrahydro-1-naphthalenyl)methyl]sulfonyl}-N-(2-propynyl)benzamide]	0.2 nM
C#CCNC(=O)c1ccccc1S(=O)(=O)Cc1c(O[C@H](Cn2ccnc2)c2ccccc2)ccc2c1CCCC2=O [Compound 216, 2-{[(2-{[(1S)-2-(1H-Imidazol-1-yl)-1-phenylethyl]oxy}-5-oxo-5,6,7,8-tetrahydro-1-naphthalenyl)methyl]sulfonyl}-N-(2-propynyl)benzamide]	0.4 nM
O=C(NC1CCCC1)c1ccc(S(=O)(=O)Cc2c(O[C@H](Cn3ccnc3)c3ccccc3)ccc3c2CCCC3=O)cc1 [Compound 217, N-Cyclopentyl-4-{[(2-{[(1S)-2-(1H-imidazol-1-yl)-1-phenylethyl]oxy}-5-oxo-5,6,7,8-tetrahydro-1-naphthalenyl)methyl]sulfonyl}benzamide]	0.2 nM
O=C(NC1CCCC1)c1cccc(S(=O)(=O)Cc2c(O[C@H](Cn3ccnc3)c3ccccc3)ccc3c2CCCC3=O)c1 [Compound 218, N-Cyclopentyl-3-{[(2-{[(1S)-2-(1H-imidazol-1-yl)-1-phenylethyl]oxy}-5-oxo-5,6,7,8-tetrahydro-1-naphthalenyl)methyl]sulfonyl}benzamide]	0.2 nM
O=C(NC1CCCC1)c1ccccc1S(=O)(=O)Cc1c(O[C@H](Cn2ccnc2)c2ccccc2)ccc2c1CCCC2=O [Compound 219, N-Cyclopentyl-2-{[(2-{[(1S)-2-(1H-imidazol-1-yl)-1-phenylethyl]oxy}-5-oxo-5,6,7,8-tetrahydro-1-naphthalenyl)methyl]sulfonyl}benzamide]	0.47 nM
O=C(NC1CCCC1)c1ccc(SCc2c(O[C@H](Cn3ccnc3)c3ccccc3)ccc3c2CCCC3=O)cc1 [Compound 220, N-Cyclopentyl-4-{[(2-{[(1S)-2-(1H-imidazol-1-yl)-1-phenylethyl]oxy}-5-oxo-5,6,7,8-tetrahydro-1-naphthalenyl)methyl]sulfanyl}benzamide]	0.2 nM
O=C(NC1CCCC1)c1cccc(SCc2c(O[C@H](Cn3ccnc3)c3ccccc3)ccc3c2CCCC3=O)c1 [Compound 221, N-Cyclopentyl-3-{[(2-{[(1S)-2-(1H-imidazol-1-yl)-1-phenylethyl]oxy}-5-oxo-5,6,7,8-tetrahydro-1-naphthalenyl)methyl]sulfanyl}benzamide]	0.2 nM
O=C(NC1CCCC1)c1ccccc1SCc1c(O[C@H](Cn2ccnc2)c2ccccc2)ccc2c1CCCC2=O [Compound 222, N-Cyclopentyl-2-{[(2-{[(1S)-2-(1H-imidazol-1-yl)-1-phenylethyl]oxy}-5-oxo-5,6,7,8-tetrahydro-1-naphthalenyl)methyl]sulfanyl}benzamide]	0.2 nM
O=C(NC1CC1)c1ccc(S(=O)(=O)Cc2c(O[C@H](Cn3ccnc3)c3ccccc3)ccc3c2CCCC3=O)cc1 [Compound 223, N-Cyclopropyl-4-{[(2-{[(1S)-2-(1H-imidazol-1-yl)-1-phenylethyl]oxy}-5-oxo-5,6,7,8-tetrahydro-1-naphthalenyl)methyl]sulfonyl}benzamide]	0.24 nM
O=C(NC1CC1)c1cccc(S(=O)(=O)Cc2c(O[C@H](Cn3ccnc3)c3ccccc3)ccc3c2CCCC3=O)c1 [Compound 224, N-Cyclopropyl-3-{[(2-{[(1S)-2-(1H-imidazol-1-yl)-1-phenylethyl]oxy}-5-oxo-5,6,7,8-tetrahydro-1-naphthalenyl)methyl]sulfonyl}benzamide]	0.2 nM
